Data set [1] in a line: in vitro.
Data set [2] concerns CHIKV. As to the kind of experiment: microbe, parasite or virus in culture. As to conditions: Chikungunya virus.

Structures are written as SMILES. A value given as a limit tells only on which side of the number the result lay.

One may read the EC50 as the concentration giving half of the maximal effect. Low values mean a more potent agent, high ones a less potent agent. As to `C[C@@]1(O)C2OP(=O)(Oc3ccccc3)OC[C@H]2O[C@H]1n1ccc(=O)[nH]c1=O` (stereo partly drawn) [EIDD-01872-01], the CC50 in data set [1] is over 500 µM. Moreover, in data set [2], the 50% effective concentration (EC50) is over 78 µM.

In data set [1], `NNc1ccn([C@@H]2O[C@H](CO)C(O)[C@@H]2O)c(=O)n1` (stereo partly drawn) [EIDD-01910-01] registered a CC50 of over 500 µM. The half-maximal effective concentration (EC50) in data set [2] was over 78 µM.

`CC1(F)[C@@H](O)[C@@H](CO)O[C@H]1n1ccc(NO)nc1=O` (stereo partly drawn) [EIDD-02080-01]: the CC50 in data set [1] is over 500 µM. The molecule further gave an EC50 in data set [2] of over 75 µM.

In data set [1], `O=c1nc(NO)ccn1[C@@H]1O[C@H](CO)[C@H](O)C1F` (stereo partly drawn) [EIDD-02085-01] displayed a CC50 of over 500 µM. Besides, the half-maximal effective concentration (EC50) in data set [2] is over 75 µM.

`CCCCCCCNC(=O)ONc1ccn([C@@H]2O[C@H](CO)[C@H](O)C2O)c(=O)n1` (stereo partly drawn) [EIDD-02107-01] showed a CC50 in data set [1] of 165 µM. This molecule returned an EC50 in data set [2] of 29 µM.

`CCCCCCCCCCCCCCCCOCCCOP(=O)(O)OC[C@H]1O[C@@H](n2ccc(NO)nc2=O)[C@@H](O)C1O` (stereo partly drawn) [EIDD-02108-03]: the CC50 in data set [1] was 98 µM. A half-maximal effect in data set [2] (EC50) was put at 34.5 µM.

In data set [1], `CC(C)(C)C(=O)OCOP(=O)(OCOC(=O)C(C)(C)C)OC[C@@]1(N=[N+]=[N-])O[C@@H](n2ccc(=O)[nH]c2=O)[C@@H](O)C1O` (stereo partly drawn) [EIDD-02110-03] displayed a CC50 of 387 µM. The molecule further came in with a 50% effective concentration (EC50) in data set [2] of 56 µM.

For the molecule `O=c1nc(NO)ccn1[C@@H]1O[C@H](CO)C(O)[C@@H]1O` (stereo partly drawn) [EIDD-02200-01], in data set [1], the CC50 is over 500 µM. The molecule also displayed a half-maximal effective concentration (EC50) in data set [2] of over 78 µM.

Take `O=c1nc(NO)ccn1[C@@H]1O[C@H](COP2(=O)OCc3ccccc3O2)C(O)[C@@H]1O` (stereo partly drawn) [EIDD-02207-01]: the CC50 in data set [1] was over 500 µM. In data set [2], the EC50 is 10.8 µM.

For `[2H]c1cn([C@@H]2O[C@H](CO)C(O)[C@@H]2O)c(=O)nc1NO` (stereo partly drawn) [EIDD-02261-01], the CC50 in data set [1] is over 500 µM. The molecule also showed an EC50 in data set [2] of 1.5 µM.

In the case of `C#C[C@@]1(O)C(O)[C@@H](COP(=O)(OCOC(=O)C(C)(C)C)OCOC(=O)C(C)(C)C)O[C@H]1n1ccc(=O)[nH]c1=O` (stereo partly drawn) [EIDD-02290-01], the CC50 in data set [1] stood at 274 µM. In data set [2], the EC50 was 64.4 µM.

For the molecule `O=c1ccn([C@@H]2O[C@H](CO)C(O)[C@]23CC3(F)F)c(=O)[nH]1` (stereo partly drawn) [EIDD-02339-01], the CC50 in data set [1] is over 500 µM. This molecule yielded an EC50 in data set [2] of over 78 µM.

For `O=c1ccn([C@@H]2O[C@H](CO)C(O)[C@@]23CC3(F)F)c(=O)[nH]1` (stereo partly drawn) [EIDD-02340-01], in data set [1], the CC50 is over 500 µM. This molecule showed an EC50 in data set [2] of over 78 µM.

On to `[2H]C([2H])(O)[C@H]1O[C@@H](n2ccc(NO)nc2=O)[C@@H](O)C1O` (stereo partly drawn) [EIDD-02345-01], for which the CC50 in data set [1] was over 500 µM. Also, the EC50 in data set [2] is 1.5 µM.

In turn, `CCCCCCCCCCCCCCCCNC(=O)ONc1ccn([C@@H]2O[C@H](CO)[C@H](O)C2O)c(=O)n1` (stereo partly drawn) [EIDD-02356-01] registered a CC50 in data set [1] of 211 µM. Moreover, the concentration giving a half-maximal response (EC50) in data set [2] was over 78 µM.

In data set [1], `CCCCCCCCCCCCCCCCCCNC(=O)ONc1ccn([C@@H]2O[C@H](CO)[C@H](O)C2O)c(=O)n1` (stereo partly drawn) [EIDD-02357-01] showed a CC50 of 90 µM. Further, the 50% effective concentration (EC50) in data set [2] was over 78 µM.

The molecule `CC(C)(C)C(=O)OCOP(=O)(OCOC(=O)C(C)(C)C)OC[C@H]1O[C@@H](n2ccc(=O)[nH]c2=O)[C@](C)(O)C1O` (stereo partly drawn) [EIDD-02416-01] returned a CC50 in data set [1] of 53 µM. In addition, in data set [2], the EC50 turned out to be 27 µM.

As to `CNC(=O)ONc1ccn([C@@H]2O[C@H](CO)C(O)[C@@H]2O)c(=O)n1` (stereo partly drawn) [EIDD-02422-01], the CC50 in data set [1] was over 500 µM. In addition, in data set [2], the concentration for a half-maximal effect (EC50) came to 32 µM.

`CN(C)C(=O)ONc1ccn([C@@H]2O[C@H](CO)[C@H](O)C2O)c(=O)n1` (stereo partly drawn) [EIDD-02423-01] showed a CC50 in data set [1] of over 500 µM. Also, the EC50 in data set [2] was found to be 25 µM.

In data set [1], `CC(C)(C)C(=O)OCOP(=O)(OCOC(=O)C(C)(C)C)OC[C@H]1O[C@@H](n2ccc(=O)[nH]c2=O)[C@](C)(F)C1O` (stereo partly drawn) [EIDD-02427-01] showed a CC50 of 355 µM. This molecule also registered an EC50 in data set [2] of 58 µM.

For the molecule `CCCCCCCOC(=O)OC[C@H]1O[C@@H](n2ccc(NO)nc2=O)C(O)[C@H]1O` (stereo partly drawn) [EIDD-02474-01], the CC50 in data set [1] turned out to be 184 µM. In data set [2], this molecule came in with an EC50 of 0.07 µM.

These data come from patent US11628181B2, “N4-hydroxycytidine and derivatives and anti-viral uses related thereto” (Emory University, priority 2014, dated 2023).
